Consider 1 compound from PMC8621570, “Mechanistic Studies of Antibiotic Adjuvants Reducing Kidney’s Bacterial Loads upon Systemic Monotherapy” (Pharmaceutics, 2021).

Holding throughout (format): in vivo, mouse
A short description of data set [1]: Blood circulating concentrations (preliminary PK). The note with it: ICR mice, single S.C 12.5 mg/kg, LC-MS. As to the method: C14(ω5)OOc10O was subjected to preliminary pharmacokinetics (PK) analysis to determine its plasma concentrations or organ bio-distribution following S.C administration to non-neutropenic pathogen-free mice. OAC quantification was performed by LC-MS as follows: blood was drawn at various time intervals and plasma was separated by centrifugation (5000 RCF, 10 min). Organs were excised and homogenized. Then, OAC was extracted from both plasma and organ homogenates by incubation with 50% acetonitrile: 50% methanol at room temperature with shaking for 30 min, and subsequent centrifugation (5000 RCF, 10 min). Supernatants were diluted two-fold in distilled water and analyzed by LC-MS (ULC ultimate 3000 DIONEX, MS BRUKER Maxis impact). Quantification was based on standard calibration curves, prepared by spiking fresh mice plasma (for PK) or water (for organ bio-distribution) with various amounts of the tested OAC (final concentrations from 2.5 to 50 µg/mL) and subjected to an identical procedure as described above.
Figure 10 Systemic efficacy studies using mouse infection models. (a,b) Data points represent colony forming unit (CFU) counts harvested from infected mice (8 and 10 mice per group, respectively). Panel (a) depicts results of the thigh infection model where mice were inoculated intramuscularly with E. coli 25922 (upper dashed line represents the inoculum) and treated subcutaneously with C14(ω5)OOc10O (12.5 mg/kg) at 1 and 3 h post-infection. Panel (b) depicts results of the urinary tract infection model where mice were infected with E. coli UPEC CFT073 by intra-urethral injection and treated subcutaneously with C14(ω5)OOc10O (12.5 mg/kg) at 1 and 6 h post-infection. Solid circles denote mice that died before the experimental endpoint. […] Panels (c,d) show the evolution of C14(ω5)OOc10O concentrations in mouse plasma (c) or in organs (d) after single subcutaneous administration (12.5 mg/kg) to ICR mice (data in c are from two mice/time points except for 60 and 180 that were 8 and 3, respectively) as determined by liquid chromatography–mass spectrometry. […]

For data set [2], the system named is E. coli 25922. Nature of the data set: Thigh infection model. The note with it: 12.5 mg/kg S.C at 1 and 3 h post-infection, CFU/thigh at 24 h, 8 mice per group. As to the method:
(§1) Animals: All animal studies were performed using male ICR mice (25 ± 2 gr). The Technion Animal Care and Use committee approved all procedures, care, and handling of animals. Ethics approval codes: IL0800519, IL0640421, IL0550618, IL1811217.
For efficacy assessments, three infection models were used including one with topical treatment and two with systemic treatment. • Excisional skin wound infection model: mice were anesthetized by intraperitoneal administration of a mixture of ketamine 100 mg/kg and xylazine 5 mg/kg in PBS and their backs shaved with electric clippers. The following day mice were similarly anesthetized and were administrated (S.C) 0.05 mg/kg buprenorphine (for pain relief). A 5 mm diameter piece of skin was removed from the middle of the shaved back, with sterile biopsy punch resulting in a full-thickness injury. A total of 20 µL of a mid-logarithmic culture, containing 5 × 10^6 CFU P. aeruginosa 27853 were applied on the wound. […] The number of viable bacteria was determined after overnight incubation at 37 °C. […] The number of viable bacteria was determined after overnight incubation at 37 °C. […] The number of viable bacteria was determined after overnight incubation at 37 °C. […]

In data set [3] the test system is P. aeruginosa 27853. Nature of the data set: Excisional skin wound infection model, topical treatment. The note with it: 4 h treatment, mice n = 3 per group. As to the method: as §1
For efficacy assessments, three infection models were used including one with topical treatment and two with systemic treatment. • Excisional skin wound infection model: mice were anesthetized by intraperitoneal administration of a mixture of ketamine 100 mg/kg and xylazine 5 mg/kg in PBS and their backs shaved with electric clippers. The following day mice were similarly anesthetized and were administrated (S.C) 0.05 mg/kg buprenorphine (for pain relief). A 5 mm diameter piece of skin was removed from the middle of the shaved back, with sterile biopsy punch resulting in a full-thickness injury. A total of 20 µL of a mid-logarithmic culture, containing 5 × 10^6 CFU P. aeruginosa 27853 were applied on the wound. Then, 15 min after inoculation, about 50 µL of hypromellose gel (prepared as described) containing OAC, antibiotic, or their combination were applied on the skin and covered with a piece of medical tape. As a control, the vehicle (drug-free gel) was similarly applied on the skin. After a treatment period of 4 h, about 8 mm diameter of skin surrounding the infected area was removed, suspended in PBS, homogenized, serially diluted 10-fold, and plated for CFU enumeration. The number of viable bacteria was determined after overnight incubation at 37 °C. The lower limit of detection was 50 CFU/wound. • Thigh infection model (TI): mice were inoculated intramuscularly with 1 × 10^6 CFU/mouse of mid-logarithmic E. coli 25922 and treated subcutaneously 1 and 3 h after inoculation. Mice were sacrificed 24 h after infection, their thighs excised, homogenized, serially diluted 10-fold, and plated for CFU enumeration. The number of viable bacteria was determined after overnight incubation at 37 °C. […] The number of viable bacteria was determined after overnight incubation at 37 °C. […]

The structures appear in SMILES notation.

In the case of `CCCCC=CCCCCCCCC(=O)N[C@@H](CCCN)C(=O)N[C@@H](CCCN)C(=O)NCCCCCCCCCC(=O)N[C@@H](CCCN)C(N)=O` [C14(ω5)OOc10O], the “Time for which potentiating plasma concentrations (>2.5 µM) were maintained after the maximum” value in data set [1] is listed as “at least 3 h”. Further, the Cmax in data set [1] (mouse, plasma, sc, mean ± SD, read-out: Maximal plasma concentration) is 8.7 ± 2.3 µM. In data set [1] (mouse, plasma, sc, read-out: Time to maximal plasma concentration), the Tmax was about 1 h. In addition, in data set [2], the “Effect on thigh bacterial loads” value is “unable to reduce bacterial loads”. For the same compound, the “Reduction of CFU count” value in data set [3] (hypromellose gel 0.2% (w/v)) turned out to be 0.5 log10 units; in data set [3] (hypromellose gel 1% (w/v)), 1.9 log10 units.
